Test results taken from patent US12071402B2, “Immunosuppressant formulations” (Novartis AG, priority 2011, dated 2024).

Test: Stability of NVS-A in mixtures with various compounds, 50° C./75% RH, 4 weeks, HPLC assay
Format: physicochemical
Conditions: vial
Description: The following Example illustrates the stability of the hemifumarate salt of 1-{4-[1-(4-cyclohexyl-3-trifluoromethyl-benzyloxyimino)-ethyl]-2-ethyl-benzyl}-azetidine-3-carboxylic acid in the presence of various compounds. Mixtures of this API with various compounds were exposed in a sealed vial to conditions of 50° C. temperature and 75% relative humidity for 4 weeks. After 4 weeks, the API degradation and sum of degradation products were assayed.
Assay method: HPLC using agilent […] and a Phenomenex Gemini C18 column. UV detection at 260 nm was used. The mobile phase used was a gradient water-acetonitrile containing 0.2% (v/v) formic acid and 10% (v/v) Triethylamine.

SMILES: CCc1cc(C(C)=NOCc2ccc(C3CCCCC3)c(C(F)(F)F)c2)ccc1CN1CC(C(=O)O)C1 [NVS-A, 1-{4-[1-(4-cyclohexyl-3-trifluoromethyl-benzyloxyimino)-ethyl]-2-ethyl-benzyl}-azetidine-3-carboxylic acid]
- Assay (%)*: 100.2%
- Sum of unknown peaks (%)*: 1.86%
